From article PMC10820264, “Combining Experimental and Computational Methods to Produce Conjugates of Anticholinesterase and Antioxidant Pharmacophores with Linker Chemistries Affecting Biological Activities Related to Treatment of Alzheimer’s Disease” (Molecules, 2024)
Values joined by “and” are separate entries in the source; they are usually repeats but may differ in a detail not shown here. Equal values may be shown once. Read-outs that look alike come from different tables or passages of the source. Marks after values point to notes of the source that are not given here.

Tests used:
Aβ42 = Aβ42 (Homo sapiens, UniProt P05067); assay: Inhibition of Aβ42 self-aggregation, thioflavin T fluorescence; assay type: biochemical; details: for inhibition at 100 µM: read-out: Inhibition of Aβ42 Self-Aggregation
Porcine liver CES = assay: CES inhibition, spectrophotometric, 4-NPA substrate; assay type: biochemical
Procedure: (§1) Human erythrocyte AChE and equine serum BChE were purchased from Milamed (Perm, Russia). Porcine liver CES, substrates, and reference compounds were from Sigma-Aldrich (St. Louis, MO, USA). The activity of enzymes was measured spectrophotometrically, as described in detail in [72] using ATCh iodide, BTCh iodide, and 4-NPA as substrates for AChE, BChE, and CES, respectively. Experimental conditions: K,Na—phosphate buffer (100 mM), 25 °C, pH 7.5 for AChE and BChE and pH 8.0 for CES assay. Measurements were carried out on a FLUOStar Optima microplate reader (BMG Labtech, Ortenberg, Germany).
Test compounds were dissolved in DMSO; the final concentration of solvent in the incubation mixture was 2% (v/v). […]

[1] = test system: free radicals in mouse brain homogenate (TBHP-initiated); assay type: biochemical; details: read-out: Radical Scavenging Capacity, Luminol Chemiluminescence Assay IC50
Human erythrocyte AChE = Human erythrocyte AChE (Homo sapiens, UniProt P22303); assay: biochemical; assay type: biochemical
Procedure: as §1
(§2) Test compounds were dissolved in DMSO; the final concentration of solvent in the incubation mixture was 2% (v/v).

equine serum BChE = equine serum BChE (Equus caballus, UniProt P81908); assay: biochemical; assay type: biochemical
Procedure: as §1, §2

[2] = test system: spontaneous lipid peroxidation in mouse brain homogenate; assay type: biochemical
[3] = Ferric-reducing antioxidant power (FRAP) assay; details: Trolox equivalents
[4] = ABTS radical cation scavenging assay; details: for ABTS•+-Scavenging Activity TEAC: Trolox equivalents; for time to reach the activity level of Trolox in ABTS radical scavenging: compound at 20 μM (IC50 of Trolox)
[5] = biological target: peripheral anionic site of Electrophorus electricus AChE (EeAChE) (Electrophorus electricus, UniProt O42275); assay type: binding;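 note: compounds tested at 20 µM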
Chain of peripheral anionic site of Electrophorus electricus AChE (EeAChE) (O42275 24-633): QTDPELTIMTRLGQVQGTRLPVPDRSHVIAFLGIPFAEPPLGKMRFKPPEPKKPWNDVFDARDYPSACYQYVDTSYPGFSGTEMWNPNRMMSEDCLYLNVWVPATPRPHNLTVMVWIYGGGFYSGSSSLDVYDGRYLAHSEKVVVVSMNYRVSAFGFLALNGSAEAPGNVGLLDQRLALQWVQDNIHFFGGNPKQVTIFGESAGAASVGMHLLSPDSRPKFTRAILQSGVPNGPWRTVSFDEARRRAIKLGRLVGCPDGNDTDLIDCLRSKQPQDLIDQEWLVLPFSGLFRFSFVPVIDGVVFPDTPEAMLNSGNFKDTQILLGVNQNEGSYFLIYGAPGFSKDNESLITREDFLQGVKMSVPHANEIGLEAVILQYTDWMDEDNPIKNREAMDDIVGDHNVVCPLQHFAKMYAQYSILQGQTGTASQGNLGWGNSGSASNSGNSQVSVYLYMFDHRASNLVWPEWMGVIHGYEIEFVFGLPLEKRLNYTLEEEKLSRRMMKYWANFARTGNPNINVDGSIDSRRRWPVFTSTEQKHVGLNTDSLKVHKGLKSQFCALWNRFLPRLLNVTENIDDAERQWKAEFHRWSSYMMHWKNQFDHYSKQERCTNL

Chain of Human erythrocyte AChE (P22303 other isoform, or with tags, fused parts or gaps): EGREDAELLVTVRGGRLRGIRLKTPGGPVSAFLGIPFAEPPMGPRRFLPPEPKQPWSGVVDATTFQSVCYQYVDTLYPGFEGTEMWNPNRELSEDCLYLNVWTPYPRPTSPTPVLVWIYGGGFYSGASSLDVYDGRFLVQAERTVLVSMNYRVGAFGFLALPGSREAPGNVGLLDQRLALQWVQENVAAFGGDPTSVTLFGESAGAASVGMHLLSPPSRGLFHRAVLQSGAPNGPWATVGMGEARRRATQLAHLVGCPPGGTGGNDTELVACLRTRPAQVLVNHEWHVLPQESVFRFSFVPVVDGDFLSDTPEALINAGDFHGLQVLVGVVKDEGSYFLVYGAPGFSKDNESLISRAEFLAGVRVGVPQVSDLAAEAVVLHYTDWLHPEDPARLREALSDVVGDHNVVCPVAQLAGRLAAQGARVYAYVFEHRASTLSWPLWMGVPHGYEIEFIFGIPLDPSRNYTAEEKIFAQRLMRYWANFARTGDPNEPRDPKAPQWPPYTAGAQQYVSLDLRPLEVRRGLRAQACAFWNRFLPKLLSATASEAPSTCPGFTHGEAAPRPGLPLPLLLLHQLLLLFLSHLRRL
Chain of equine serum BChE (P81908 whole entry): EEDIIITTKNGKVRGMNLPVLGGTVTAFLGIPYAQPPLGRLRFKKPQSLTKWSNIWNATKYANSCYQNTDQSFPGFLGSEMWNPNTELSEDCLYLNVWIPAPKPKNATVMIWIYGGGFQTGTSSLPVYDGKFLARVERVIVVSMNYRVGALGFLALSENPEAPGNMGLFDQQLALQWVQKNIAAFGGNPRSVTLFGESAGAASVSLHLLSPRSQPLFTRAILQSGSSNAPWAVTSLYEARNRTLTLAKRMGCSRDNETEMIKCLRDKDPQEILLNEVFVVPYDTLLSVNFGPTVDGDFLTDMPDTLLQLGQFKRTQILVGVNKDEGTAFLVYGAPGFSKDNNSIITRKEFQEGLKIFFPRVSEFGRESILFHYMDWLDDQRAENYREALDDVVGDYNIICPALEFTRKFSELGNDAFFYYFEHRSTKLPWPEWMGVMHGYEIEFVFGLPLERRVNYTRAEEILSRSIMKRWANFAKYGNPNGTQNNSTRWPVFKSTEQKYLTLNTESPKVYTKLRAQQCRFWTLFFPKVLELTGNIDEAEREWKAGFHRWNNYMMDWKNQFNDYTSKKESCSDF
Chain of Aβ42 (P05067 672-713): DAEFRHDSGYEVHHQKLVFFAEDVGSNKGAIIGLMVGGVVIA

| Compound | Inhibition of Aβ42 Self-Aggregation (Aβ42; Aβ42 50 µM, compound 100 µM) | CES % inhibition at 20 μM (Porcine liver CES) | IC50 [1] | inhibition at 20 µM (Human erythrocyte AChE; read-out: AChE % inhibition at 20 μM) | inhibition at 20 µM (equine serum BChE; read-out: BChE % inhibition at 20 μM) | IC50 ([2]; read-out: Inhibition of Spontaneous Lipid Peroxidation in Mouse Brain Homogenate, TBARS Assay IC50) | IC50 ([2]; read-out: Inhibition of spontaneous lipid peroxidation in mice brain homogenate (TBARS Assay) IC50) | Ferric-Reducing Antioxidant Power TE [3] | IC50 [4] | ABTS•+-Scavenging Activity TEAC [4] | Propidium Displacement [5] | IC50 (Human erythrocyte AChE) | IC50 (equine serum BChE) | inhibition at 100 µM (Aβ42; Aβ42 50 µM, compound 100 µM) | time to reach the activity level of Trolox in ABTS radical scavenging [4] | inhibition at 100 µM (Aβ42) | AChE activity relative to tacrine (times more active) (Human erythrocyte AChE; vs tacrine) |
| --- | --- | --- | --- | --- | --- | --- | --- | --- | --- | --- | --- | --- | --- | --- | --- | --- | --- |
| Propidium iodide [reference compound] | 89.3 ± 7.1 ^b % | – | – | – | – | – | – | – | – | – | – | – | – | – | – | – | – |
| bis-4-nitrophenyl phosphate [BNPP, reference compound] | – | 99.1 ± 0.9% ^b | – | – | – | – | – | – | – | – | – | – | – | – | – | – | – |
| Cc1cc(C(C)(C)C)c(O)c(C(C)(C)C)c1 [BHT, butylated hydroxytoluene, reference compound] | not detectable | 5.6 ± 0.2% | 70.4 ± 4.1 µM | 6 ± 1.5% | 18.9 ± 1.7% | 6.9 ± 0.3 µM | 7 µM | 0.96 ± 0.02 | 22.4 ± 1.4 µM | 0.98 ± 0.03 | – | – | – | – | – | – | – |
| CC(C)(C)c1cc(C=NCCCCNc2c3c(nc4ccccc24)CCC3)cc(C(C)(C)C)c1O [13b, 2,6-Di-tert-butyl-4-{[4-(2,3-dihydro-1H-cyclopenta[b]quinolin-9-ylamino)-butylimino]-methyl}-phenol] | – | 32.7 ± 1.9% | – | – | – | – | – | 0.60 ± 0.02 | 25.4 ± 1.6 µM | 0.78 ± 0.04 | 20.0 ± 1.6 ***^,§ % | 1.3 ± 0.07 µM | 0.351 ± 0.001 µM | – | – | – | – |
| CC(C)(C)c1cc(C=NCCCCCCNc2c3c(nc4ccccc24)CCCC3)cc(C(C)(C)C)c1O [14c, 2,6-Di-tert-butyl-4-{[6-(1,2,3,4-tetrahydro-acridin-9-ylamino)-hexylimino]-methyl}-phenol] | – | 25.1 ± 1.9% | – | – | – | – | – | 0.71 ± 0.02 | 18.6 ± 0.9 µM | 1.10 ± 0.05 | 19.7 ± 1.5 **^,§ % | 0.0712 ± 0.0012 µM | 0.055 ± 0.005 µM | 62.4 ± 4.9% | – | – | – |
| CC(C)(C)c1cc(CNCCCCCCNc2c3c(nc4ccccc24)CCC3)cc(C(C)(C)C)c1O [16c, 2,6-Di-tert-butyl-4-{[6-(2,3-dihydro-1H-cyclopenta[b]quinolin-9-ylamino)-hexylamino]-methyl}-phenol] | – | 18.7 ± 0.7% | – | – | – | – | – | 0.51 ± 0.02 | 13.4 ± 0.7 µM | – | 15.8 ± 1.4% | 0.205 ± 0.012 µM | 0.0488 ± 0.0005 µM | – | less than 1 min | – | – |
| CC(C)(C)c1cc(CNCCNc2c3c(nc4ccccc24)CCCC3)cc(C(C)(C)C)c1O [17a, 2,6-Di-tert-butyl-4-{[2-(1,2,3,4-tetrahydro-acridin-9-ylamino)-ethylamino]-methyl}-phenol] | – | 18.4 ± 1.1% | – | – | – | – | – | 0.52 ± 0.02 | 16.7 ± 0.8 µM | 1.20 ± 0.05 | 13.4 ± 1.1% | 2.88 ± 0.19 µM | 0.464 ± 0.041 µM | – | – | – | – |
| Nc1c2c(nc3ccccc13)CCCC2 [Tacrine, reference compound] | minimal inhibition | – | – | – | – | – | – | – | – | – | – | – | – | – | – | – | – |
| O=c1c(O)c(-c2cc(O)c(O)c(O)c2)oc2cc(O)cc(O)c12 [Myricetin, reference compound] | – | – | – | – | – | – | – | – | – | – | – | – | – | – | – | 73.2 ± 5.8% | – |
| CC(C)(C)c1cc(C=NCCCCNc2c3c(nc4ccccc24)CCCC3)cc(C(C)(C)C)c1O [14b, 2,6-Di-tert-butyl-4-{[4-(1,2,3,4-tetrahydro-acridin-9-ylamino)-butylimino]-methyl}-phenol] | – | 26.6 ± 2.2% | – | – | – | – | – | – | 19.7 ± 0.9 µM | 1.0 and 1.00 ± 0.05 | 17.6 ± 1.4 *^,§ % | 0.424 ± 0.022 µM | 0.385 ± 0.031 µM | – | – | – | – |
| Cc1c(C)c2c(c(C)c1O)CCC(C)(C(=O)O)O2 (stereo not shown) [Trolox, 6-hydroxy-2,5,7,8-tetramethylchroman-2-carboxylic acid, reference compound] | – | – | – | – | – | – | – | 1.0 | 20 µM and 20.1 µM | 1.0 | – | – | – | – | – | – | – |
| CC(C)(C)c1cc(C=NCCCCNc2c3c(nc4ccccc24)CCCCC3)cc(C(C)(C)C)c1O [15b, 2,6-Di-tert-butyl-4-{[4-(7,8,9,10-tetrahydro-6H-cyclohepta[b]quinolin-11-ylamino)-butylimino]-methyl}-phenol] | – | 26.3 ± 0.4% | – | – | – | – | – | 0.46 ± 0.01 | 22.5 ± 1.4 µM | 0.89 ± 0.04 | 18.4 ± 1.4 **^,§ % | 0.524 ± 0.02 µM | 0.131 ± 0.004 µM | – | – | – | – |
| CC(C)(C)c1cc(CNCCCCNc2c3c(nc4ccccc24)CCCC3)cc(C(C)(C)C)c1O [17b, 2,6-Di-tert-butyl-4-{[4-(1,2,3,4-tetrahydro-acridin-9-ylamino)-butylamino]-methyl}-phenol] | – | 15.8 ± 1.4% | – | – | – | – | – | – | 14.3 ± 0.6 µM | – | 15.4 ± 1.3% | 0.279 ± 0.022 µM | 0.111 ± 0.009 µM | – | less than 1 min | – | – |
| CC(C)(C)c1cc(CNCCCCNc2c3c(nc4ccccc24)CCCCC3)cc(C(C)(C)C)c1O [18b, 2,6-Di-tert-butyl-4-{[4-(7,8,9,10-tetrahydro-6H-cyclohepta[b]quinolin-11-ylamino)-butylamino]-methyl}-phenol] | – | 21.4 ± 1.8% | – | – | – | – | – | 0.38 ± 0.01 | 14.6 ± 0.5 µM | – | 15.7 ± 1.2% | 0.436 ± 0.016 µM | 0.0678 ± 0.0061 µM | – | less than 1 min | – | – |
| CC(C)(C)c1cc(CNCCCCNc2c3c(nc4ccccc24)CCC3)cc(C(C)(C)C)c1O [16b, 2,6-Di-tert-butyl-4-{[4-(2,3-dihydro-1H-cyclopenta[b]quinolin-9-ylamino)-butylamino]-methyl}-phenol] | – | 17.2 ± 3.3% | – | – | – | – | – | 0.44 ± 0.02 | 23.6 ± 1.3 µM | 0.90 ± 0.04 | 17.5 ± 1.5 *^,§ % | 0.912 ± 0.016 µM | 0.177 ± 0.017 µM | – | – | – | – |
| CC(C)(C)c1cc(CNCCCCCCNc2c3c(nc4ccccc24)CCCC3)cc(C(C)(C)C)c1O [17c, 2,6-Di-tert-butyl-4-{[6-(1,2,3,4-tetrahydro-acridin-9-ylamino)-hexylamino]-methyl}-phenol] | – | 18.5 ± 1.6% | – | – | – | – | – | 0.44 ± 0.02 | 15.7 ± 0.6 µM | 1.32 ± 0.08 | 16.1 ± 1.1% | 0.0702 ± 0.0011 µM | 0.0361 ± 0.023 µM | 64.1 ± 5.7% | less than 1 min | – | – |
| CC(C)(C)c1cc(C=NCCCCCCNc2c3c(nc4ccccc24)CCC3)cc(C(C)(C)C)c1O [13c, 2,6-Di-tert-butyl-4-{[6-(2,3-dihydro-1H-cyclopenta[b]quinolin-9-ylamino)-hexylimino]-methyl}-phenol] | – | 31.3 ± 2.1% | – | – | – | – | – | 0.59 ± 0.01 | 19.4 ± 0.9 µM | 0.98 ± 0.04 | 16.5 ± 1.3% | 0.21 ± 0.01 µM | 0.172 ± 0.017 µM | – | – | – | – |
| CC(C)(C)c1cc(C=NCCCCCCCCNc2c3c(nc4ccccc24)CCC3)cc(C(C)(C)C)c1O [13d, 2,6-Di-tert-butyl-4-{[8-(2,3-dihydro-1H-cyclopenta[b]quinolin-9-ylamino)-octylimino]-methyl}-phenol] | – | 26.3 ± 1.7% | – | – | – | – | – | 0.71 ± 0.03 | 22.7 ± 1.2 µM | 0.85 ± 0.03 | 15.1 ± 0.9% | 0.107 ± 0.009 µM | 0.0417 ± 0.0003 µM | 49.4 ± 4.3% | – | – | – |
| CC(C)(C)c1cc(CNCCCCCCCCNc2c3c(nc4ccccc24)CCCC3)cc(C(C)(C)C)c1O [17d, 2,6-Di-tert-butyl-4-{[8-(1,2,3,4-tetrahydro-acridin-9-ylamino)-octylamino]-methyl}-phenol] | – | 23.6 ± 2.1% | 11.3 ± 1.5 µM | – | – | – | – | 0.57 ± 0.01 | 15.2 ± 0.7 µM | – | 13.4 ± 1.2% | 0.0151 ± 0.002 µM | 0.00756 ± 0.00042 µM | 71.4 ± 4.9% | less than 1 min | – | ~ 40 times |
| CC(C)(C)c1cc(CNCCCCCCCCNc2c3c(nc4ccccc24)CCC3)cc(C(C)(C)C)c1O [16d, 2,6-Di-tert-butyl-4-{[8-(2,3-dihydro-1H-cyclopenta[b]quinolin-9-ylamino)-octylamino]-methyl}-phenol] | – | 17.2 ± 0.2% | – | – | – | – | – | 0.61 ± 0.01 | 21.3 ± 1.2 µM | 1.00 ± 0.03 | 13.9 ± 1.1% | 0.094 ± 0.006 µM | 0.017 ± 0.0016 µM | 54.6 ± 3.9% | – | – | – |
